Converted amounts (≈) assume the structure as drawn.
Columns and labels:
Enterobacter cloacae = test: In vitro antibacterial activity against Enterobacter cloacae OMNFI 174; format: functional
[1] = Mean MIC against gram positive; format: functional
Enterococcus faecalis [2] = test: In vitro antibacterial activity against Enterococcus faecalis LEP Br; format: functional
DNA gyrase = DNA gyrase (Escherichia coli, UniProt P0AES4+P0AES6); test: Inhibitory effect against Escherichia coli Gyrase in Supercoiling assay; format: protein-complex assay
Staphylococcus aureus [3] = test: In vitro antibacterial activity against Staphylococcus aureus CPX-R OBT 687; format: functional
Escherichia coli [4] = test: In vitro antibacterial activity against Escherichia coli ATCC 25922; format: functional
Proteus mirabilis = test: In vitro antibacterial activity against Proteus mirabilis OBT 505; format: functional
Proteus vulgaris = test: In vitro antibacterial activity against Proteus vulgaris CNUR 6; format: functional
Staphylococcus aureus [5] = test: In vitro antibacterial activity against Staphylococcus aureus M-R POMM 6214; format: functional
Staphylococcus aureus [6] = test: In vitro antibacterial activity against Staphylococcus aureus ATCC 29213; format: functional
Streptococcus pneumoniae = test: In vitro antibacterial activity against Streptococcus pneumoniae I 0.43; format: functional
Streptococcus pyogenes = test: In vitro antibacterial activity against Streptococcus pyogenes OMNFI BI; format: functional
Klebsiella pneumoniae = test: In vitro antibacterial activity against Klebsiella pneumoniae ATCC 10031; format: functional
Escherichia coli [7] = test: In vitro antibacterial activity against Escherichia coli 120; format: functional
Pseudomonas aeruginosa [8] = test: In vitro antibacterial activity against Pseudomonas aeruginosa OBT 307; format: functional
Enterococcus faecalis [9] = test: In vitro antibacterial activity against Enterococcus faecalis UCMC 39690; format: functional
Staphylococcus aureus [10] = test: In vitro antibacterial activity against Staphylococcus aureus MPR 5; format: functional
Escherichia coli [11] = test: In vitro antibacterial activity against Escherichia coliCPX-R OBT 431; format: functional
Haemophilus influenzae = test: In vitro antibacterial activity against Haemophilus influenzae; format: functional
[12] = Mean MIC against gram negative; format: functional
Pseudomonas aeruginosa [13] = test: In vitro antibacterial activity against Pseudomonas aeruginosa […] 9027; format: functional

| SMILES | MIC (Enterobacter cloacae) [µg/mL] | MIC [1] [µg/mL] | MIC (Enterococcus faecalis [2]) [µg/mL] | IC50 (DNA gyrase) [µM] | MIC (Staphylococcus aureus [3]) [µg/mL] | MIC (Escherichia coli [4]) [µg/mL] | MIC (Proteus mirabilis) [µg/mL] | MIC (Proteus vulgaris) [µg/mL] | MIC (Staphylococcus aureus [5]) [µg/mL] | MIC (Staphylococcus aureus [6]) [µg/mL] | MIC (Streptococcus pneumoniae) [µg/mL] | MIC (Streptococcus pyogenes) [µg/mL] | MIC (Klebsiella pneumoniae) [µg/mL] | MIC (Escherichia coli [7]) [µg/mL] | MIC (Pseudomonas aeruginosa [8]) [µg/mL] | MIC (Enterococcus faecalis [9]) [µg/mL] | MIC (Staphylococcus aureus [10]) [µg/mL] | MIC (Escherichia coli [11]) [µg/mL] | MIC (Haemophilus influenzae) [µg/mL] | MIC (Pseudomonas aeruginosa [13]) [µg/mL] | also measured |
| --- | --- | --- | --- | --- | --- | --- | --- | --- | --- | --- | --- | --- | --- | --- | --- | --- | --- | --- | --- | --- | --- |
| Cc1c(N2CCc3ccccc3C2)c(N)cc2c(=O)c(C(=O)O)cn(C3CC3)c12 | 0.5 (≈ 1.28 µM) | 0.075 (≈ 0.193 µM) | 0.25 (≈ 0.642 µM) | 9.24 | 2 (≈ 5.14 µM) | 0.125 (≈ 0.321 µM) | > 16 | 8 (≈ 20.5 µM) | < 0.016 | < 0.016 | 0.25 (≈ 0.642 µM) | < 0.016 | 0.03 (≈ 0.077 µM) | 0.125 (≈ 0.321 µM) | > 16 | 0.125 (≈ 0.321 µM) | < 0.016 | > 16 | < 0.016 | 8 (≈ 20.5 µM) | MIC [12]: 0.998 µg/mL (≈ 2.56 µM) |
| Cc1c(N2CCSCC2)ccc2c(=O)c(C(=O)O)cn(C3CC3)c12 | 1 (≈ 2.9 µM) |  | 1 (≈ 2.9 µM) |  | 2 (≈ 5.81 µM) | 0.125 (≈ 0.363 µM) | 4 (≈ 11.6 µM) | 16 (≈ 46.5 µM) | > 0.016 | > 0.016 | 1 (≈ 2.9 µM) | 0.5 (≈ 1.45 µM) | < 0.016 | 0.25 (≈ 0.726 µM) | 16 (≈ 46.5 µM) | 0.5 (≈ 1.45 µM) | > 0.016 | > 16 | < 0.016 | 4 (≈ 11.6 µM) |  |
| Cc1c(N2CCCCC2)ccc2c(=O)c(C(=O)O)cn(C3CC3)c12 | 0.25 (≈ 0.766 µM) | 0.052 (≈ 0.159 µM) | 1 (≈ 3.06 µM) | 10.1 | 1 (≈ 3.06 µM) | 0.03 (≈ 0.0919 µM) | 4 (≈ 12.3 µM) | 8 (≈ 24.5 µM) | < 0.016 | < 0.016 | < 0.016 | 0.03 (≈ 0.0919 µM) | < 0.016 | 0.03 (≈ 0.0919 µM) | 16 (≈ 49 µM) | 0.03 (≈ 0.0919 µM) | < 0.016 | > 16 | < 0.016 | 4 (≈ 12.3 µM) | MIC [12]: 0.534 µg/mL (≈ 1.64 µM) |
| Cc1c(N2CCC(O)CC2)ccc2c(=O)c(C(=O)O)cn(C3CC3)c12 | 0.25 (≈ 0.73 µM) |  | 0.5 (≈ 1.46 µM) |  | 0.5 (≈ 1.46 µM) | 0.06 (≈ 0.175 µM) | 2 (≈ 5.84 µM) | 8 (≈ 23.4 µM) | < 0.016 | < 0.016 | 0.25 (≈ 0.73 µM) | 2 (≈ 5.84 µM) | < 0.016 | 0.06 (≈ 0.175 µM) | 16 (≈ 46.7 µM) | 0.125 (≈ 0.365 µM) | < 0.016 | > 16 | 0.25 (≈ 0.73 µM) | 2 (≈ 5.84 µM) |  |
| Cc1c(N2CCc3ccccc3C2)ccc2c(=O)c(C(=O)O)cn(C3CC3)c12 | 0.03 (≈ 0.0801 µM) | 0.272 (≈ 0.726 µM) | 1 (≈ 2.67 µM) | 20.8 | 2 (≈ 5.34 µM) | 1 (≈ 2.67 µM) | > 16 | > 16 | 0.25 (≈ 0.668 µM) | < 0.016 | 1 (≈ 2.67 µM) | 0.25 (≈ 0.668 µM) | 0.125 (≈ 0.334 µM) | 2 (≈ 5.34 µM) | > 16 | 0.5 (≈ 1.34 µM) | 0.03 (≈ 0.0801 µM) | > 16 | 0.06 (≈ 0.16 µM) | > 16 | MIC [12]: 1.85 µg/mL (≈ 4.94 µM) |

The remaining compounds from weak to strong by MIC (Enterobacter cloacae), led by results:

| MIC (Enterobacter cloacae) [µg/mL] | MIC [1] [µg/mL] | MIC (Enterococcus faecalis [2]) [µg/mL] | IC50 (DNA gyrase) [µM] | MIC (Staphylococcus aureus [3]) [µg/mL] | MIC (Escherichia coli [4]) [µg/mL] | MIC (Proteus mirabilis) [µg/mL] | MIC (Proteus vulgaris) [µg/mL] | MIC (Staphylococcus aureus [5]) [µg/mL] | MIC (Staphylococcus aureus [6]) [µg/mL] | MIC (Streptococcus pneumoniae) [µg/mL] | MIC (Streptococcus pyogenes) [µg/mL] | MIC (Klebsiella pneumoniae) [µg/mL] | MIC (Escherichia coli [7]) [µg/mL] | MIC (Pseudomonas aeruginosa [8]) [µg/mL] | MIC (Enterococcus faecalis [9]) [µg/mL] | MIC (Staphylococcus aureus [10]) [µg/mL] | MIC (Escherichia coli [11]) [µg/mL] | MIC (Haemophilus influenzae) [µg/mL] | MIC (Pseudomonas aeruginosa [13]) [µg/mL] | SMILES | also measured |
| --- | --- | --- | --- | --- | --- | --- | --- | --- | --- | --- | --- | --- | --- | --- | --- | --- | --- | --- | --- | --- | --- |
| 2 (≈ 5.61 µM) |  | 1 (≈ 2.81 µM) |  | 1 (≈ 2.81 µM) | 1 (≈ 2.81 µM) | 16 (≈ 44.9 µM) | > 16 | 0.03 (≈ 0.0842 µM) | 0.125 (≈ 0.351 µM) | 0.5 (≈ 1.4 µM) | 0.5 (≈ 1.4 µM) | 0.125 (≈ 0.351 µM) | 0.5 (≈ 1.4 µM) | 16 (≈ 44.9 µM) | 0.25 (≈ 0.701 µM) | < 0.016 | > 16 | 1 (≈ 2.81 µM) | 16 (≈ 44.9 µM) | Cc1c(N2CC(C)OC(C)C2)ccc2c(=O)c(C(=O)O)cn(C3CC3)c12 (stereo unspecified) |  |
| 0.5 (≈ 1.45 µM) | 0.022 (≈ 0.0639 µM) | 0.03 (≈ 0.0871 µM) | 6.97 | 0.125 (≈ 0.363 µM) | < 0.016 | 1 (≈ 2.9 µM) | 2 (≈ 5.81 µM) | < 0.016 | < 0.016 | < 0.016 | < 0.016 | < 0.016 | < 0.016 | 4 (≈ 11.6 µM) | < 0.016 | < 0.016 | 16 (≈ 46.5 µM) | < 0.016 | 1 (≈ 2.9 µM) | Cc1c(N2CCCCC2)c(F)cc2c(=O)c(C(=O)O)cn(C3CC3)c12 | MIC [12]: 0.29 µg/mL (≈ 0.842 µM) |
| 0.25 (≈ 0.734 µM) |  | 0.5 (≈ 1.47 µM) |  | 1 (≈ 2.94 µM) | 0.03 (≈ 0.0881 µM) | 2 (≈ 5.88 µM) | 4 (≈ 11.8 µM) | < 0.016 | < 0.016 | 0.25 (≈ 0.734 µM) | 0.125 (≈ 0.367 µM) | < 0.016 | 0.06 (≈ 0.176 µM) | 8 (≈ 23.5 µM) | 0.03 (≈ 0.0881 µM) | < 0.016 | > 16 | < 0.016 | 2 (≈ 5.88 µM) | Cc1c(N2CCC(C)CC2)ccc2c(=O)c(C(=O)O)cn(C3CC3)c12 |  |
